Reference: publication PMC7891696, “The molecular targets of ivermectin and lotilaner in the human louse Pediculus humanus humanus: New prospects for the treatment of pediculosis” (PLoS Pathogens, 2021)
Read-outs that look alike come from different tables or passages of the source.

Tests used:
Phh-RDL [1] = biological target: T1, Phh-RDL (Pediculus humanus humanus, UniProt A0A894T8E6); test: Two-electrode voltage-clamp on Xenopus laevis oocytes expressing Phh-RDL; type: cell-based; settings: for concentration at which GABA-elicited currents were completely inhibited: 100 μM GABA
Description: (§1) Defolliculated Xenopus laevis oocytes were purchased from Ecocyte Bioscience and maintained in incubation solution (100 mM NaCl, 2 mM KCl, 1.8 mM CaCl2.2H2O, 1 mM MgCl2.6H2O, 5 mM HEPES, 2.5 mM C3H3NaO3, pH 7.5 supplemented with penicillin 100 U/mL and streptomycin 100 μg/mL) at 19°C. Each oocyte was microinjected with 57 ng of cRNA encoding Phh-GluCl or Phh-RDL using a Drummond nanoject II microinjector. Three to five days after cRNA injection, two-electrode voltage-clamp recordings were performed with an oocyte clamp OC-725C amplifier (Warner instrument) at a holding potential of -80mV or -60 mV to assess the expression of the GluCl or RDL channels. Currents were recorded and analyzed using the pCLAMP 10.4 package (Molecular Devices). Concentration-response relationships for agonists were carried out by challenging oocytes with 10 s applications of increasing concentrations of compounds. […] For Phh-GluCl, the dose-response relationship for ivermectin was performed by applying each concentration of ivermectin for 20–30 s. Each oocyte received only one ivermectin concentration (≤ 30 nM) followed with a high ivermectin concentration (≥ 100 nM). Data were normalized to a first 100 μM glutamate apllication. […] Concentration-response curves for agonists were fitted with the following equation: Y=100/1+10^H(logEC50−X)
Where Y is the normalized response, H is the Hill slope and X is the logarithm of concentration. The same equation was used for the concentration-response curves for antagonists by replacing logEC50 by logIC50. Results are expressed as mean +/- SEM and statistical analysis were performed using One-Way ANOVA with Tukey’s Multiple Comparisons Test. […] The corresponding concentration response curves were fitted using the following four parameter Hill equation: Y=Bottom+(Top−Bottom)/1+10^H(LogEC50−X)

[2] = tested on: human adult body lice (Pediculus humanus humanus); test: Toxicity bioassay on adult human body lice (filter paper contact, survival and immobilization); type: in vivo; settings: for lice killed or immobilized (death or knockdown rate): adult lice n = 44
Description: (§2) The colony of human body lice (Pediculus humanus humanus) were provided by Kosta Y. Mumcuoglu from the Kuvin Center for the Study of Infectious and Tropical Diseases, Hebrew University-Hadassah Medical School, Jerusalem, Israel. This laboratory-reared colony adapted to rabbit blood were fed four times per week for 20–30 min on rabbits and maintained at 30 ± 1°C and 60–70% relative humidity without exposure to any drugs. […] Nits (50 to 190 per condition) were incubated with lotilaner or ivermectin and hatching was monitored between six and nine days. Water and solution of 1% DMSO were used as negative controls. Pictures were recorded with a Motic Digital Microscope 143 Series and the Motic Image Plus 3.0 software.

Phh-GluCl = Phh-GluCl (Pediculus humanus humanus, UniProt A0A894TL71); test: Two-electrode voltage-clamp on Xenopus laevis oocytes expressing Phh-GluCl; type: cell-based
Description: as §1

Phh-RDL [3] = biological target: T1, Phh-RDL; test: Two-electrode voltage-clamp on Xenopus laevis oocytes expressing Phh-RDL; type: cell-based; settings: 1 μM ivermectin, 90 s application
nits of human body lice = test: Nit hatching test; type: in vivo, Pediculus humanus humanus; settings: 100 μM, hatching between six and nine days after application, compared with water and 1% DMSO
Description: as §2

[4] = antagonism of 100 μM GABA current, 90 s preincubation, read-out: IC50

Phh-GluCl, sequence (A0A894TL71 entry or part of it): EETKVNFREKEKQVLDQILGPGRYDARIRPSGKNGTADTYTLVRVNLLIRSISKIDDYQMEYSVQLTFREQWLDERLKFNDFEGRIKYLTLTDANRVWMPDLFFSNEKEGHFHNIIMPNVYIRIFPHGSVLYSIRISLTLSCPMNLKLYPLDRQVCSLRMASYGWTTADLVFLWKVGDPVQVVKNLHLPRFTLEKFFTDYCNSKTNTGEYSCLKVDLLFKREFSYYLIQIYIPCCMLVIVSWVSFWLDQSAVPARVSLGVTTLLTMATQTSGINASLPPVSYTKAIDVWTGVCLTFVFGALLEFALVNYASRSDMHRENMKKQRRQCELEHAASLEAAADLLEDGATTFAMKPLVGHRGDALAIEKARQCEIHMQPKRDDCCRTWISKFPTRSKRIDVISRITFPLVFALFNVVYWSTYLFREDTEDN
T1 sequence (A0A894T8E6 entry or part of it): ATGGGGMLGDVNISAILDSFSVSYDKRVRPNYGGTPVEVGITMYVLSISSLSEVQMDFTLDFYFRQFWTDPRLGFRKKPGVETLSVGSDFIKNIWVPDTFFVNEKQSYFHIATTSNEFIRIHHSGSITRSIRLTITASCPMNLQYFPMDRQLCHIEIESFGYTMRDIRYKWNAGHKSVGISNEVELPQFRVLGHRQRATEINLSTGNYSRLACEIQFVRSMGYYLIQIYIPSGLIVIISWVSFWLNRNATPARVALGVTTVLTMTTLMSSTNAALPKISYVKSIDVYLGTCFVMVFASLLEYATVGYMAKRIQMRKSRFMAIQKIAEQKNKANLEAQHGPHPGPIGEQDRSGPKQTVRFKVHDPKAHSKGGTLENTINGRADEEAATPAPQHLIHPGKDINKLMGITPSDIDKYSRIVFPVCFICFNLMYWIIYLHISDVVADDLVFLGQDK

N#Cc1nn(-c2c(Cl)cc(C(F)(F)F)cc2Cl)c(N)c1[S+]([O-])C(F)(F)F (stereo not drawn) [fipronil]
IC50 (Phh-RDL [1]): 138 ± 35.1 nM
agonist effect (Phh-RDL [1]): no agonist effect
lice killed or immobilized (death or knockdown rate) ([2]; 100 μM, 24 h): 91%

N[C@@H](CCC(=O)O)C(=O)O [glutamate]
EC50 (Phh-GluCl): 9300 nM
Hill coefficient (Phh-GluCl; glutamate concentration-response curve): 1.9 +/- 0.5

ivermectin
lowest concentration at which slow activation of the receptor was observed (Phh-GluCl): 10 nM
reversibility of the agonist effect (Phh-GluCl): not reversible
current as % of the 1 mM glutamate-elicited current (Phh-GluCl; 1 μM ivermectin): 86.5 +/- 8.2%
EC50 (Phh-GluCl; agonist, normalized to a first 100 μM glutamate application, read-out: EC50): 78.5 ± 30.2 nM
IC50 on RDL receptor relative to EC50 for Phh-GluCl (Phh-RDL [1]): 4 fold
effect on GABA current at low concentration (potentiation) (Phh-RDL [1]; 100 nM ivermectin coapplied with 3 μM GABA): increased the current amplitude
mode of action at higher concentration (Phh-RDL [1]; 1 μM ivermectin): both an agonistic and antagonistic effect
concentration at which GABA-elicited currents were completely inhibited (Phh-RDL [1]): 3 µM
reversibility of the currents elicited (Phh-RDL [1]; 0.3 to 30 μM, 90 seconds): not reversible
IC50 (Phh-RDL [1]; [4]): 342 ± 14 nM
maximum agonist effect as % of the 1 mM response (Phh-RDL [3]): 7.9 +/- 1.3%
death rate of lice ([2]; 10 μM, 24 h, adult lice): 100%
death rate of lice ([2]; 100 μM, 3 h, adult lice): 30%
lice killed or immobilized (death or knockdown rate) ([2]; 100 μM, 24 h): 100%
effect on nit hatching (nits of human body lice): absence of efficacy

picrotoxin
agonist effect (Phh-RDL [1]): no agonist effect
concentration at which GABA-elicited currents were completely inhibited (Phh-RDL [1]): 30 µM
IC50 (Phh-RDL [1]; [4]): 1160 ± 230 nM
lice killed or immobilized (death or knockdown rate) ([2]; 100 μM, 24 h): not efficient to kill the lice

NCCCC(=O)O [GABA, γ-aminobutyric acid]
EC50 (Phh-RDL [1]): 16000 nM
Hill coefficient (Phh-RDL [1]; GABA concentration-response curve): 2.3 +/- 0.1
Emax (Phh-RDL [1]; read-out: maximum current amplitude): 97.95 ± 0.69%

Cc1cc(C2=NO[C@@](c3cc(Cl)c(Cl)c(Cl)c3)(C(F)(F)F)C2)sc1C(=O)NCC(=O)NCC(F)(F)F [lotilaner]
concentration without effect on Phh-GluCl (30 μM) as multiple of the IC50 for Phh-RDL (Phh-GluCl; 30 μM): 737 fold
agonist effect (current elicited) (Phh-GluCl; 1 to 30 μM): did not elicit any current
inhibitory effect on glutamate-evoked currents (Phh-GluCl; 1 to 30 μM, co-application with 100 μM glutamate): no significant inhibitory effect
agonist effect (Phh-RDL [1]): no agonist effect
type of inhibition (Phh-RDL [1]; competitive assay, GABA dose-response with 1 nM and 10 nM lotilaner): non-competitive antagonist
IC50 (Phh-RDL [1]; read-out: IC50): 40.7 nM
lice killed ([2]; 1 μM, 24 h, adult lice): 14%
death rate of lice ([2]; 100 μM, 3 h, adult lice): death of all lice
effect on nit hatching (nits of human body lice): absence of efficacy
